Data set [1] concerns Leishmania donovani. The experiment in a line: GSK_TCAKS: pIC50 Leishmania donovani viability assay using fluorescence intensity. Assay plates (1536-well) were prepared by adding 30nL per well of compound. For single shot assay, the final compound concentration was 5uM. […] Briefly, eGFP LdBOB axenic amastigotes were harvested, fixed and counted in a CASY cell counter (Roche-Applied Science). A final concentration of 1.5 * 10^5 cells per well were prepared in amastigote media containing 500 U/mL penicillin/streptomycin (Invitrogen) and 6uL was dispensed to each experimental well using a Multidrop Combi dispenser (Thermo Scientific). 6uL of assay media was dispensed to control columns used as reference for 100% compound response. Following incubation for 72 h at 37C, 5% CO2, 2 uL of resazurin was added to each well at a final concentration of 0.5 mM in phosphate buffered saline (PBS) with IGEPAL (Sigma-Aldrich), 0.05% (v/v). Format: functional, organism-based.

The test system of data set [2] is Trypanosoma brucei brucei. The experiment in a line: GSK_TCAKS: pIC50 Trypanosoma brucei viability assay using fluorescence intensity. Assay plates (1536-well) were prepared by dispensing 25nL of compound solution per well using an Echo acoustic dispenser (Labcyte). Format: functional, organism-based. The following applies: Lister 427, 2 h.
For data set [3], the system named is Leishmania donovani. The experiment in a line: GSK_TCAKS: pIC50 Leishmania donovani Imaging: Infected Macrophages. Assay plates (384-well) were prepared by adding 250nL of compound to each well. For single shot assay, the final compound concentration was 5 uM. […] Automated image analysis was performed with a script developed on Acapella High Content Imaging and Analysis Software (PerkinElmer). Output: Percent of infected macrophage cells were reported for each well. Format: functional, organism-based, Homo sapiens. The note with it: THP-1.

The test system of data set [4] is Trypanosoma cruzi. The experiment in a line: GSK_TCAKS: pIC50 Trypanosoma cruzi viability assay using beta-GAL activity. This assay was run at single shot at 5uM compound concentration per well. The biological reagents consisted of NIH-3T3 host cells and trypomastigotes parasitic cells; both cell types were set to a 3.3 * 10^5 cells/mL dilution in assay DMEM by means of a CASY cell counter device using a 60um capillary. 6 uL of the mixture were dispensed per well (about 1 * 10^3 host-cells and 1 * 10^3 parasites) with a Multidrop Combi dispenser. […] In all wells, the percentage of DMSO never exceeded 0.5%. Plates incubated for four days at 37C, 5% CO2. The substrate used for the assay fluorescence intensity (FLINT) readout was resorufin-beta-D-galactopiranoside (Sigma-Aldrich) at 5uM per well. It was diluted in PBS supplemented with the soft detergent Igepal (Fluka). The format is functional, organism-based, Mus musculus. The note with it: Tulahuen, NIH3T3.

Data set [5] has as its system Leishmania donovani. The experiment in a line: GSK_TCAKS: pIC50 Leishmania donovani Imaging: THP-1 Host Macrophages. Assay plates (384-well) were prepared by adding 250nL of compound to each well. For single shot assay, the final compound concentration was 5 uM. […] Automated image analysis was performed with a script developed on Acapella High Content Imaging and Analysis Software (PerkinElmer). Output: THP-1 cell count were reported for each well. The format is functional, organism-based, Homo sapiens.

Data set [6] concerns Leishmania donovani. The experiment in a line: GSK_TCAKS: pIC50 Leishmania donovani Imaging: Amastigotes/Macrophages. Assay plates (384-well) were prepared by adding 250nL of compound to each well. For single shot assay, the final compound concentration was 5 uM. […] Automated image analysis was performed with a script developed on Acapella High Content Imaging and Analysis Software (PerkinElmer). Output: Average number of amastigotes per macrophage cell were reported for each well. Format: functional, organism-based, Homo sapiens. The following applies: THP-1.

The nature of data set [7]: GSK_TCAKS: pIC50 HepG2 human cell line viability assay using luminiscence. […] Seeding density was checked to ensure that new mono-layers were not more than 50% confluent at the time of harvesting. Cell suspension was added to 500 mL of the same medium at a final density of 1.2 * 10^5 cells/mL. This cell suspension was dispensed (25 uL, 3000 cells per well) into 384-well clear-bottom plates using a Multidrop Combi dispenser. Prior to addition of the cell suspension, the screening compounds (250 nL) were pre-dispensed into the plates with an Echo liquid handler. Plates were incubated for 48 h at 37C, 5% CO2. After incubation, plates equilibrated at room temperature for 30 min before proceeding to develop the luminescent signal. The signal developer, CellTiter-Glo Reagent, was allowed to equilibrate at room temperature for 30 min and added to the plates (25uL per well) using a Multidrop Combi dispenser. Plates were left for 10 min at room temperature for stabilization and then read using a ViewLux. The format is toxicity, cell-based.

In data set [8] the test system is Trypanosoma cruzi. The experiment in a line: (§1) GSK_TCAKS: pIC50 Trypanosoma cruzi Imaging: Amastigotes/Cell. […] Cells were then washed once with PBS before infection. T. cruzi trypomastigotes, collected at days 5 to 8 after infection from LLC-MK2 parasite infected cultures, were allowed to swim out for 4h at 37C from a centrifuged pellet (2,500 rpm/10 min/room temperature). Trypomastigotes were then collected and counted in a CASY Cell Counter. Trypomastigotes, in supplemented DMEM, were added to H9c2 cultures in a multiplicity of infection of 1 and incubated for 18 h. Cells were washed once with PBS before incubation of the infected H9c2 monolayer with trypsin (Life-Technologies) to detach cells from the flask. Cells were counted in a CASY Cell Counter using a 150 um capillary and their density set at 5 * 10^4 cells per mL in supplemented assay DMEM. Infected H9c2 were dispensed into 384-well poly-lysine coated assay plates at 50uL per well using a Multidrop Combi dispenser. After seeding them, the plates were incubated at 37C, 5% CO2 for 72h. Cultures were then fixed and stained by addition of 50 uL of a solution containing 8% formaldehyde and 4 uM DRAQ5 DNA dye (BioStatus, UK) per well. […] Five images were collected per well for reliable statistical analysis. Automated image analysis was performed with a script developed on Acapella High Content Imaging and Analysis Software (PerkinElmer). Output: number of amastigotes per cell as infection level measurement. Format: functional, organism-based, Rattus norvegicus. The note with it: H9c2, 4 h.

In data set [9] the test system is Trypanosoma cruzi. The description is as §1, with “H2C9” for “Trypanosoma cruzi”, “H9c2 Host Cardiomyocytes.” for “Amastigotes/Cell.”, “Number” for “number”, “H9c2 Host Cardiomyocytes nuclei to determine drug-related cytotoxicity.” for “amastigotes per cell as infection level measurement.”. The format is functional, organism-based, Rattus norvegicus. The following applies: H9c2, 4 h.

Data set [10] concerns Trypanosoma cruzi. The experiment in a line: GSK_TCAKS: pIC50 Trypanosoma cruzi Imaging: Infected Cells. […] Cells were then washed once with PBS before infection. T. cruzi trypomastigotes, collected at days 5 to 8 after infection from LLC-MK2 parasite infected cultures, were allowed to swim out for 4h at 37C from a centrifuged pellet (2,500 rpm/10 min/room temperature). Trypomastigotes were then collected and counted in a CASY Cell Counter. Trypomastigotes, in supplemented DMEM, were added to H9c2 cultures in a multiplicity of infection of 1 and incubated for 18 h. Cells were washed once with PBS before incubation of the infected H9c2 monolayer with trypsin (Life-Technologies) to detach cells from the flask. Cells were counted in a CASY Cell Counter using a 150 um capillary and their density set at 5 * 10^4 cells per mL in supplemented assay DMEM. Infected H9c2 were dispensed into 384-well poly-lysine coated assay plates at 50uL per well using a Multidrop Combi dispenser. After seeding them, the plates were incubated at 37C, 5% CO2 for 72h. Cultures were then fixed and stained by addition of 50 uL of a solution containing 8% formaldehyde and 4 uM DRAQ5 DNA dye (BioStatus, UK) per well. […] Five images were collected per well for reliable statistical analysis. Automated image analysis was performed with a script developed on Acapella High Content Imaging and Analysis Software (PerkinElmer). Output: percentage of infected cells per well as a second infection marker. Format: functional, organism-based, Rattus norvegicus. The following applies: H9c2, 4 h.

Data set [11] deals with Sterol 14-alpha demethylase (Trypanosoma cruzi (strain CL Brener), UniProt Q7Z1V1). The experiment in a line: GSK_TCAKS: pIC50 CYP51 from Trypanosoma cruzi. Format: functional.
Data set [12] relates to Trypanosoma brucei brucei. The experiment in a line: GSK_TCAKS: pIC50 Trypanosoma brucei viability assay using luminiscence. Assay plates (1536-well) were prepared. T. brucei cultures were harvested and counted in a CASY cell counter. A parasite suspension was prepared at a final concentration of 5 * 10^4 cells/mL in complete HMI9 medium and 6uL was dispensed to all wells containing compounds using a Multidrop Combi dispenser. 6uL of HMI9 media with 0.4% DMSO were dispensed to control columns. Plates were incubated for 24 h at 37C, 5% CO2 then tempered for 10 min at room temperature. ATP content was quantified by adding 4 uL of CellTiter-Glo Reagent (Promega) according to the manufacturer's instructions. Luminescence was measured using a ViewLux. The format is functional, organism-based. The note with it: Lister 427, CASY.

The structures appear in SMILES notation. pIC50: −log10 of the molar value.

Sterol 14-alpha demethylase, sequence (Q7Z1V1 whole entry): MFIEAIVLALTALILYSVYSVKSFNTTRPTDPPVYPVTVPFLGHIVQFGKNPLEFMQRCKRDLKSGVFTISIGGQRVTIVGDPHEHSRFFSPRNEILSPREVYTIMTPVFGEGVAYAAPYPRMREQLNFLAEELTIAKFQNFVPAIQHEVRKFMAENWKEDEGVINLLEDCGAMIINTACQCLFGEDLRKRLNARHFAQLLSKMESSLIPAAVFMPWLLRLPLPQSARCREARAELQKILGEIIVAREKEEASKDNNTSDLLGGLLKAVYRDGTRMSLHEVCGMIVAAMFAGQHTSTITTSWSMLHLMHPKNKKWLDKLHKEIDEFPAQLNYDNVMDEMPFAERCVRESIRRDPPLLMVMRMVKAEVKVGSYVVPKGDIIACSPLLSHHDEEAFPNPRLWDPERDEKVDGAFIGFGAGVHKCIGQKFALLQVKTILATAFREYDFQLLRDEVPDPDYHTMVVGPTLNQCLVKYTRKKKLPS

As to `CN(Cc1nc2ccc(C(=O)NCC3CCCCC3)cc2[nH]1)C1CCCc2cccnc21` (stereo not given), the pIC50 in [1] is 5.50; in data set [2] it was 6.10; in data set [3], 6.30; in [4], 6.30; in [5] it was 5.20; in data set [6], 6.40. For the same molecule, the pIC50 is 6.50 in data set [8]; 5.30 in data set [9]; 6.20 in data set [10]; 4.40 in data set [11]; 6.50 in data set [12]. Further, half-maximal inhibition in [7] (IC50 at 48 h) was put at 15.8 µM.
For the molecule `Cc1nc2c(-c3ncn[nH]3)cc(NC(=O)Cc3ccccc3)cn2c1C`, the pIC50 in data set [1] was 6.10; in data set [2], 5.50; in data set [3] it was 6.40; in [4], 6.00; in data set [5], 5.10; in data set [6] it was 6.50. For the same molecule, the pIC50 in [8] is 6.10; in data set [9], 5.20; in data set [10], 6.00; in [11] it was 5.00; in data set [12] it was 5.00. The same molecule had a 50% inhibitory concentration (IC50) at 48 h in data set [7] of 15.8 µM.
With `O=C(Nc1nc(-c2ccccn2)cs1)N1C[C@H]2C[C@@]2(c2ccccc2)C1`, the pIC50 in data set [1] is 5.70; in data set [2], 6.30; in data set [3] it was 6.30; in data set [4], 6.30; in [5], 5.10; in [6], 6.40. Besides, the pIC50 in [8] is 6.60; in [9], 6.10; in data set [10], 6.30; in data set [11], 4.40; in data set [12], 6.20. The concentration for half-maximal inhibition (IC50) at 48 h in [7] was 25.1 µM.
Regarding `CCn1c(NC(=O)Cc2ccc(F)cc2)nc2ccccc21`, the pIC50 was 5.00 in data set [1]; 5.50 in data set [2]; 5.00 in data set [3]; 5.30 in [4]; less than 4.30 in [5]; 5.20 in data set [6]. Also, the pIC50 was 5.40 in data set [8]; less than 4.30 in data set [9]; 5.10 in [10]; 4.60 in [11]; 5.30 in [12]. The IC50 at 48 h in data set [7] was greater than 100 µM.
In the case of `Cc1ccc(Nc2nc(-c3ccccn3)cc(N3CCCC(O)C3)n2)cc1` (stereo not given), the pIC50 in data set [1] is 5.70; in [2], 5.50; in [3], 6.10; in data set [4], 6.30; in [5], 4.60; in data set [6], 6.30. Also, the pIC50 in data set [8] is 5.60; in data set [9] it was 6.30; in data set [10], 5.20; in data set [11], 4.60; in data set [12] it was 5.50. Moreover, inhibition in data set [7] was half-maximal at 39.8 µM (IC50 at 48 h).

For the origin of these results see ChEMBL document CHEMBL3430912, “GSK Tres Cantos Anti-Kinetoplastid Screening (TCAKS) Data”.
